Columns and labels:
[1] = Superoxide anion scavenging (PMS/NADH method); assay type: biochemical; conditions: cell free
Procedure: (§1) The antioxidant activity of Microsan from Microbacterium sp. strain BS-2 and Brevisan from Brevibacillus sp. strain BS-207 in cell free system was measured by its inhibitory activity on the generation of DPPH free radicals, superoxide anions (O^2−), lipid peroxidation and erythrocyte hemolysis. The DPPH free radical scavenging assay was performed using 2,2-diphenyl-1-picrylhydrazyl (DPPH) free radical scavenging method [Ara. N. and Hasan, N. (2009) Res. J. Med. Medical Sci. 4, 107-110]. Different concentrations of Microsan and Brevisan were mixed individually with 150 μl of 160 μM methanolic solution of DPPH and incubated at 35° C. for 30 min in dark. The effective concentration (EC50) was calculated by measuring the absorbance of the samples at 517 nm. The superoxide anion scavenging was measured using phenazine methosulfate-nicotinamide adenine dinucleotide (PMS/NADH) method as previously described [Liu, F., Ooi, V. E. and Chang, S. T. (1997) Life Sci. 60, 763-771]. The lipid peroxidation assay was performed using the previously described method [Zhang, Q., Yu, P., Li, Z., Zhang, H., Xu, Z. and Li, P. (2003) J. Appl. Phycol. 15, 305-310] which is based on measuring the lipid peroxide decomposed product malondialdehyde (MDA). […] Samples were incubated at 37° C. for 30 min and the absorbance was measured at 540 nm. […]

[2] = Interfacial tension, Du-Nouy ring method; assay type: physicochemical
Procedure: The surface tension of the purified Microsan from Microbacterium sp. strain BS-2 and Brevisan from Brevibacillus sp. strain BS-207 was measured by Wilhelmy plate method using a Du-Nouy K100MK2 Processor Tensiometer (Krüss, Hamburg, Germany) which reduced the surface tension of water from 72 to 31.2 mN m^−1. The interfacial tension value was measured by Du-Nouy ring method and it was determined as 25.7 mN m. The critical micelle concentration (CMC) was measured by plotting the concentration of EPS as a function of surface tension. The CMC is the point where the slope of the curve abruptly changed was determined as 75 mg l^−1. The emulsification index (EI24) was determined by the addition of 4 ml of culture supernatant to 6 ml of various hydrocarbons (N-Hexadecane, tridecane, hexane, toluene and xylene) and oils (mineral oil and soybean oil) and the mixtures were vortexed for 2 min and allowed to stand for 24 h. The emulsification index (EI24) values expressed as the percentage of height of emulsified layer to the height of total liquid column.

[3] = system: nitric oxide (NO) in RAW 264.7 macrophages; assay: LPS-stimulated nitric oxide (Griess reaction) in RAW 264.7 macrophages; assay type: cell-based, mouse; conditions: 20 μg ml^−1; LPS 100 ng ml^−1 24 h; LPS alone 66.87%
Procedure: After 24 h, 100 μl of culture supernatant was collected and mixed with 100 μl of Griess reagent in a 96-well plate and incubated for 15 min at room temperature. The optical density was spectroscopically measured at 540 nm using TRIAD multimode reader (Dynex Technologies, Inc., Chantilly, Va.). The experiments were run in triplicates and reported as the percentage of NO produced.

erythrocytes = assay: Erythrocyte hemolysis assay (H2O2); assay type: cell-based; conditions: human erythrocytes, H2O2, 37° C., 30 min
Procedure: as §1

[4] = Critical micelle concentration; assay type: physicochemical
Procedure: The bacterial strains producing biosurfactants were isolated from the petroleum-contaminated soil sample collected from Mupkal, Nizamabad, Andhra Pradesh, India (latitude 18.90° N and longitude 78.36° E). The soil sample was enriched by placing 1.0 g of soil sample in 100 ml of mineral salts medium supplemented with N-hexadecane (1%, v/v) as a sole carbon source for three weeks. The enriched sample was serially diluted and then plated on the mineral salts agar plates overlaid with N-hexadecane which acted as a sole carbon source. The colonies that appeared on the plates upon incubation at 37° C. for 72 h were purified for 2-3 times on nutrient agar plates. The isolated pure microorganisms were cultured in liquid mineral salts medium at 37° C. for 72 h. The cells were separated by centrifugation and the cell-free supernatant was measured for the reduction in surface tension values by Wilhelmy plate method using a Du-Nouy K100MK2 Processor Tensiometer (Krüss, Hamburg, Germany). The concentration series was generated automatically with a computer-controlled Dosimat (Metrohm AG, Switzerland). […] The critical micelle concentration (CMC) was measured by plotting the concentration of surfactant as a function of surface tension, and the CMC was taken as the point where the slope of the curve abruptly changed. […]

[5] = system: intracellular reactive oxygen species (ROS) in RAW 264.7 macrophages; assay: LPS-induced intracellular ROS (DCFH-DA) in RAW 264.7 macrophages; assay type: cell-based, mouse; conditions: 20 μg ml^−1; LPS 100 ng/ml 24 h; LPS alone 78.97%
Procedure: The inhibition of intracellular reactive oxygen species (ROS) by Brevisan, Microsan and M-EPS-Au-NP in RAW 264.7 macrophages was measured using the oxygen free radical acceptor 2,7,-dichlorofluorescein diacetate (DCFH-DA) [Wang, H., and Joseph J. A. (1999) Free. […] The RAW-264.7 macrophages (2×10^6 cells/well in 24-well plate) were treated with Brevisan, Microsan and M-EPS-Au-NP at various concentrations and then stimulated with 100 ng/ml LPS for 24 h using N-acetylcysteine (NAC, 10 mM) as a ROS inhibitor. The DCF formed by intracellular ROS was measured at 485 nm excitation and 520 nm emission wavelengths using a Hitachi spectrofluorimeter. The experiments were run in triplicates and reported as the percentage of intracellular ROS formed.

[6] = Lipid peroxidation assay (malondialdehyde); assay type: biochemical; conditions: cell free
Procedure: as §1

With “β-D-glucuronyl-(1-2)-D-mannosyl-(1-4)-D-glucose [Microsan]” as the substance, how does the “EC50 superoxide anions (O^2−) scavenging” value [1] read?
Its value is 24.48 µg/mL.

And the interfacial tension [2]?
Its interfacial tension is 25.7 mN m.

What about the “LPS-stimulated NO levels after treatment” value [3] of the same substance?
The value was 20.05%.

What about the “EC50 erythrocyte hemolysis inhibition” value (erythrocytes) of the same substance?
The value was 139.28 µg/mL.

What about the “critical micelle concentration (CMC)” value [4] of the same substance?
The value was 75 mg/L.

And the “LPS-induced ROS levels after treatment” value [5]?
The value was 55.71%.

What about the “EC50 lipid peroxidation inhibition” value [6] of the same substance?
Its value is 165.94 µg/mL.

Reference: US10106627B2, “Process for the preparation of polymeric biosurfactants” (priority 2014, dated 2018)
